Test results reported in US8501946B2 (Glaxo Group Limited, priority 2009, dated 2013).

Each compound was assayed against T1, human recombinant P2X7 receptors (Homo sapiens, UniProt Q99572) (assay: Ethidium Accumulation Assay 1 (HEK293 cells, ATP-induced ethidium uptake)). Details: HEK293 cells expressing human P2X7; 1 mM ATP; sometimes mean of more than one measurement; read-out: Assay 1 (antagonist pIC50 for blocking ATP responses) (converted).
T1 construct: expressed in transfected cells
T1 sequence (Q99572 1-595): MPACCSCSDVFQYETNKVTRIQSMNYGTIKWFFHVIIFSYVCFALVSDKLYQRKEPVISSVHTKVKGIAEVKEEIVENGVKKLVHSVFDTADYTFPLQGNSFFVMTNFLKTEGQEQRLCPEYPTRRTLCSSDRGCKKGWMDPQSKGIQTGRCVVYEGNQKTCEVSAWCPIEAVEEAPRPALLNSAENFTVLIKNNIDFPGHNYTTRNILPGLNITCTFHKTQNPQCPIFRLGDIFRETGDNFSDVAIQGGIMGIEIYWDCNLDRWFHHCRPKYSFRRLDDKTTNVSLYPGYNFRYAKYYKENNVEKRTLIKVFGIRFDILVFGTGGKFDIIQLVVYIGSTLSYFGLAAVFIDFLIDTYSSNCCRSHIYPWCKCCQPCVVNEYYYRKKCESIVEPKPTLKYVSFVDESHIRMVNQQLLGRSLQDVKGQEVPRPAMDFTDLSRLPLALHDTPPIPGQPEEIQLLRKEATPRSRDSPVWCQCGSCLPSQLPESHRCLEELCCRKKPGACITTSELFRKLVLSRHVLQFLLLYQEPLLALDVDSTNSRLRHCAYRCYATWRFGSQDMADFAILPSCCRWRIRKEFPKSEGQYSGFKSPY
Type: cell-based

| Compound | IC50 [nM] |
| --- | --- |
| O=C(c1ccc(F)cc1C(F)(F)F)N1CCn2c(nnc2-c2ccccn2)C1 [Example 94, 7-{[4-fluoro-2-(trifluoromethyl)phenyl]carbonyl}-3-(2-pyridinyl)-5,6,7,8-tetrahydro[1,2,4]triazolo [4,3-a]pyrazine] | < 100 |
| O=C(c1ccc(F)cc1Cl)N1CCn2c(nnc2-c2ncccc2F)C1 [Example 31, 7-[(2-chloro-4-fluorophenyl)carbonyl]-3-(3-fluoro-2-pyridinyl)-5,6,7,8-tetrahydro[1,2,4]triazolo [4,3-a]pyrazine] | < 10 |
| Cc1ccc(-c2nnc3n2CCN(C(=O)c2cccc(Cl)c2Cl)C3)nc1 [Example 60, 7-[(2,3-dichlorophenyl)carbonyl]-3-(5-methyl-2-pyridinyl)-5,6,7,8-tetrahydro[1,2,4]triazolo [4,3-a]pyrazine] | < 100 |
| Cc1ccc(C(=O)N2CCn3c(nnc3-c3cnccn3)C2)c(C)c1 [Example 143, 7-[(2,4-dimethylphenyl)carbonyl]-3-(2-pyrazinyl)-5,6,7,8-tetrahydro[1,2,4]triazolo[4,3-a]pyrazine] | < 501 |
| Cc1cccc(-c2nnc3n2CCN(C(=O)c2cccc(Cl)c2Cl)C3)n1 [Example 69, 7-[(2,3-dichlorophenyl)carbonyl]-3-(6-methyl-2-pyridinyl)-5,6,7,8-tetrahydro[1,2,4]triazolo [4,3-a]pyrazine] | < 10 |
| O=C(c1cccc(C(F)(F)F)c1Cl)N1CCn2c(nnc2N2CCCC2)C1 [Example 19, 7-{[2-chloro-3-(trifluoromethyl)phenyl]carbonyl}-3-(1-pyrrolidinyl)-5,6,7,8-tetrahydro[1,2,4]triazolo [4,3-a]pyrazine] | < 100 |
| Cn1cccc1-c1nnc2n1CCN(C(=O)c1ccc(F)cc1Cl)C2 [Example 82, -[(2-chloro-4-fluorophenyl)carbonyl]-3-(1-methyl-1H-pyrrol-2-yl)-5,6,7,8-tetrahydro[1,2,4]triazolo [4,3-a]pyrazine] | < 100 |
| O=C(c1cccc(Cl)c1Cl)N1CCn2c(nnc2-c2ccc(F)cn2)C1 [Example 54, 7-[(2,3-dichlorophenyl)carbonyl]-3-(5-fluoro-2-pyridinyl)-5,6,7,8-tetrahydro[1,2,4]triazolo [4,3-a]pyrazine] | < 10 |
| O=C(c1ccc(Cl)c(F)c1Cl)N1CCn2c(nnc2-c2ccc(F)cn2)C1 [Example 110, 7-[(2,4-Dichloro-3-fluorophenyl)carbonyl]-3-(5-fluoro-2-pyridinyl)-5,6,7,8-tetrahydro[1,2,4]triazolo[4,3-a]pyrazine] | < 10 |
| O=C(c1cccc(C(F)(F)F)c1Cl)N1CCn2c(nnc2-c2ccccc2)C1 [Example 13, 7-{[2-Chloro-3-(trifluoromethyl)phenyl]carbonyl}-3-phenyl-5,6,7,8-tetrahydro[1,2,4]triazolo[4,3-a]pyrazine] | < 10 |
| O=C(c1cccc(Cl)c1Cl)N1CCn2c(nnc2-c2ccccc2)C1 [Example 70, 7-[(2,3-dichlorophenyl)carbonyl]-3-phenyl-5,6,7,8-tetrahydro[1,2,4]triazolo [4,3-a]pyrazine] | < 10 |
| O=C(c1cccc(Cl)c1Cl)N1CCn2c(nnc2-c2ccc(F)cc2F)C1 [Example 98] | < 100 |
| COCCc1nnc2n1CCN(C(=O)c1cccc(C(F)(F)F)c1Cl)C2 [Example 137, 7-{[2-chloro-3-(trifluoromethyl)phenyl]carbonyl}-3-[2-(methyloxy)ethyl]-5,6,7,8-tetrahydro[1,2,4]triazolo[4,3-a]pyrazine] | < 100 |
| O=C(c1cccc(C(F)(F)F)c1Cl)N1CCn2c(nnc2-c2ncccc2F)C1 [Example 52, 7-{[2-chloro-3-(trifluoromethyl)phenyl]carbonyl}-3-(3-fluoro-2-pyridinyl)-5,6,7,8-tetrahydro[1,2,4]triazolo [4,3-a]pyrazine] | < 10 |
| COc1cccc(-c2nnc3n2CCN(C(=O)c2ccc(F)cc2Cl)C3)c1 [Example 125, 7-[(2-chloro-4-fluorophenyl)carbonyl]-3-[3-(methyloxy)phenyl]-5,6,7,8-tetrahydro[1,2,4]triazolo[4,3-a]pyrazine] | < 100 |
| O=C(c1ccc(F)cc1Cl)N1CCn2c(nnc2-c2cccc(F)n2)C1 [Example 41, 7-[(2-chloro-4-fluorophenyl)carbonyl]-3-(6-fluoro-2-pyridinyl)-5,6,7,8-tetrahydro[1,2,4]triazolo [4,3-a]pyrazine] | < 501 |
| Cc1cccnc1-c1nnc2n1CCN(C(=O)c1cccc(Cl)c1Cl)C2 [Example 66, 7-[(2,3-dichlorophenyl)carbonyl]-3-(3-methyl-2-pyridinyl)-5,6,7,8-tetrahydro[1,2,4]triazolo [4,3-a]pyrazine] | < 100 |
| Cc1cccnc1-c1nnc2n1CCN(C(=O)c1ccc(F)cc1Cl)C2 [Example 32, 7-[(2-chloro-4-fluorophenyl)carbonyl]-3-(3-methyl-2-pyridinyl)-5,6,7,8-tetrahydro[1,2,4]triazolo[4,3-a]pyrazine] | < 100 |
| O=C(c1cccc(C(F)(F)F)c1Cl)N1CCn2c(nnc2-c2ncc(F)cc2F)C1 [Example 83, 7-{[2-chloro-3-(trifluoromethyl)phenyl]carbonyl}-3-(3,5-difluoro-2-pyridinyl)-5,6,7,8-tetrahydro[1,2,4]triazolo [4,3-a]pyrazine] | < 10 |
| O=C(c1cccc(C(F)(F)F)c1Cl)N1CCn2c(nnc2-c2ccncc2)C1 [Example 10, 7-{[2-Chloro-3-(trifluoromethyl)phenyl]carbonyl}-3-(4-pyridinyl)-5,6,7,8-tetrahydro[1,2,4]triazolo[4,3-a]pyrazine] | < 100 |

Results, then the compound that gave them:

| IC50 [nM] | Compound |
| --- | --- |
| < 100 | O=C(c1cccc(C(F)(F)F)c1F)N1CCn2c(Br)nnc2C1 [Example 9, 3-bromo-7-{[2-fluoro-3-(trifluoromethyl)phenyl]carbonyl}-5,6,7,8-tetrahydro[1,2,4]triazolo [4,3-a]pyrazine] |
| < 100 | O=C(c1ccc(Cl)cc1Cl)N1CCn2c(nnc2-c2ncccc2F)C1 [Example 93] |
| < 100 | O=C(c1ccc(Cl)cc1Cl)N1CCn2c(nnc2-c2ccc(F)cc2)C1 [Example 100, 7-[(2,4-dichlorophenyl)carbonyl]-3-(4-fluorophenyl)-5,6,7,8-tetrahydro[1,2,4]triazolo [4,3-a]pyrazine] |
| < 10 | O=C(c1cccc(Cl)c1Cl)N1CCn2c(nnc2-c2cscn2)C1 [Example 67, 7-[(2,3-dichlorophenyl)carbonyl]-3-(1,3-thiazol-4-yl)-5,6,7,8-tetrahydro[1,2,4]triazolo[4,3-a]pyrazine] |
| < 100 | O=C(c1cccc(Cl)c1Cl)N1CCn2c(Br)nnc2C1 [Example 6, 3-bromo-7-[(2,3-dichlorophenyl)carbonyl]-5,6,7,8-tetrahydro[1,2,4]triazolo [4,3-a]pyrazine] |
| < 100 | CCc1nnc2n1CCN(C(=O)c1cccc(Cl)c1Cl)C2 [Example 5, 7-[(2,3-dichlorophenyl)carbonyl]-3-ethyl-5,6,7,8-tetrahydro[1,2,4]triazolo [4,3-a]pyrazine] |
| < 501 | O=C(c1ccc(Cl)cc1Cl)N1CCn2c(Br)nnc2C1 [Example 7, 3-bromo-7-[(2,4-dichlorophenyl)carbonyl]-5,6,7,8-tetrahydro[1,2,4]triazolo [4,3-a]pyrazine] |
| < 501 | O=C(c1c(Cl)cc(Cl)cc1Cl)N1CCn2c(Br)nnc2C1 [Example 8, 3-bromo-7-[(2,4,6-trichlorophenyl)carbonyl]-5,6,7,8-tetrahydro[1,2,4]triazolo [4,3-a]pyrazine] |
